This note sets out measurements from ChEMBL document CHEMBL1201862, “PubChem BioAssay data set” (2004).

SMILES strings stand for the structures.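 Compound exposure: 48 hours, 5 concentrations, 96-well plates. At the GI50, growth is halved.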 Active and inactive are the calls of the source. No stated cut-off is given here; in the data, active = GI50 up to about 1.1 µM and inactive = higher.

Among the test systems are CCRF-CEM; SN12C; HL-60; KM12; NCI/ADR-RES; SW-620; OVCAR-5; NCI-H23; SR; HOP-92; ACHN; NCI-H460; SNB-19; MCF7; A549; T47D; OVCAR-3; SF-539; SK-OV-3.
Holding throughout (experiment): NCI anticancer screen, dose series, 48 h

For `Nc1ccc2c(c1)C(=O)c1ccccc1-2`, the GI50 with CCRF-CEM is 71.6 µM (inactive); in the assay with SN12C it was > 100 µM (inactive); in the assay on HL-60 it was 30.2 µM (inactive); in the assay on KM12 it was 62.5 µM (inactive); in the assay on NCI/ADR-RES, > 100 µM (inactive); in the assay on SW-620, 68.1 µM (inactive). The GI50 in the assay with OVCAR-5 was > 100 µM (inactive); in the assay on NCI-H23 it was > 100 µM (inactive); with SR, 23.6 µM (inactive); with HOP-92, 28.6 µM (inactive); in the assay on ACHN, 72.9 µM (inactive); with NCI-H460, > 100 µM (inactive). Also, the GI50 is > 100 µM (inactive) in the assay with SNB-19; > 100 µM (inactive) with MCF7; > 100 µM (inactive) with A549; 61.8 µM (inactive) in the assay with T47D; 55.7 µM (inactive) in the assay on OVCAR-3; > 100 µM (inactive) in the assay on SF-539.

As to `COc1ccc(N2C(N)=C(C#N)C(C#N)(C#N)C2c2cccc([N+](=O)[O-])c2)cc1` (stereo not drawn), the GI50 in the assay on CCRF-CEM is 3.05 µM (inactive); with SN12C, 16.1 µM (inactive); with HL-60 it was 3.03 µM (inactive); with KM12, 18.9 µM (inactive); in the assay on NCI/ADR-RES it was 21.1 µM (inactive); in the assay with SW-620, 11.2 µM (inactive). The GI50 was 17.5 µM (inactive) with OVCAR-5; 15.5 µM (inactive) in the assay with NCI-H23; 8.47 µM (inactive) in the assay with SR; 12.9 µM (inactive) in the assay on HOP-92; 14.2 µM (inactive) with ACHN; 17.9 µM (inactive) in the assay on SNB-19. The GI50 is 19.9 µM (inactive) in the assay with MCF7; 20.2 µM (inactive) in the assay with SK-OV-3; 18.3 µM (inactive) with A549; 12.6 µM (inactive) in the assay with T47D; 15.4 µM (inactive) with OVCAR-3; 14.7 µM (inactive) with SF-539.

Take `CC(=O)c1ccc2c3c1[C@H]1O[C@H]1c1cccc(c1-3)[C@@H]1O[C@H]21`: the GI50 was 1.61 µM (inactive) in the assay on CCRF-CEM; 1.85 µM (inactive) in the assay on SN12C; 2.58 µM (inactive) in the assay with HL-60; 1.87 µM (inactive) in the assay with KM12; 1.98 µM (inactive) with NCI/ADR-RES; 0.855 µM (active) in the assay on SW-620. Further, the GI50 in the assay with OVCAR-5 was 1.95 µM (inactive); in the assay with NCI-H23 it was 1.49 µM (inactive); in the assay with SR it was 4.57 µM (inactive); in the assay on HOP-92, 1.57 µM (inactive); in the assay with ACHN, 1.94 µM (inactive); with SNB-19, 2.98 µM (inactive). Besides, the GI50 in the assay with MCF7 is 2.34 µM (inactive); in the assay on SK-OV-3 it was 5.32 µM (inactive); with A549, 2.92 µM (inactive); with T47D, 2.15 µM (inactive); in the assay with OVCAR-3 it was 3.27 µM (inactive).

`CCCCC(=O)c1ccc2ccccc2c1O`: the GI50 in the assay with CCRF-CEM was 42.8 µM (inactive); in the assay with HL-60 it was 51.3 µM (inactive); in the assay on KM12, > 100 µM (inactive); in the assay on NCI/ADR-RES, > 100 µM (inactive); in the assay on SW-620, > 100 µM (inactive); with NCI-H23, > 100 µM (inactive). Further, the GI50 in the assay on SR was 62.5 µM (inactive); with HOP-92, > 100 µM (inactive); with ACHN, > 100 µM (inactive); in the assay with NCI-H460, > 100 µM (inactive); with SNB-19, > 100 µM (inactive); in the assay on MCF7, 52.8 µM (inactive). Also, the GI50 in the assay on SK-OV-3 was > 100 µM (inactive); in the assay on T47D, 49.2 µM (inactive); in the assay on SF-539, > 100 µM (inactive).

Regarding `CCOC(=O)C(CS)NC(=O)CCCCCCCC(=O)O` (stereo not drawn), the GI50 was 41.5 µM (inactive) in the assay on CCRF-CEM; > 100 µM (inactive) in the assay on SN12C; > 100 µM (inactive) with HL-60; > 100 µM (inactive) in the assay on KM12; > 100 µM (inactive) with NCI/ADR-RES; > 100 µM (inactive) in the assay on SW-620. In addition, the GI50 was > 100 µM (inactive) in the assay on OVCAR-5; > 100 µM (inactive) in the assay with NCI-H23; > 100 µM (inactive) in the assay with SR; > 100 µM (inactive) with HOP-92; 78.3 µM (inactive) in the assay on ACHN; > 100 µM (inactive) with NCI-H460. Further, the GI50 in the assay on SNB-19, in the assay on MCF7, in the assay with SK-OV-3, with A549, in the assay on T47D and with OVCAR-3 was > 100 µM (inactive) in each case.

For the compound `CC1(C(O)c2ccccc2)CN(C(C)(C)C)C(=O)/C1=C\Sc1ccccc1` (stereo not drawn), the GI50 with CCRF-CEM is 23.9 µM (inactive); with SN12C, 33.9 µM (inactive); in the assay on HL-60, 24.7 µM (inactive); with KM12, 31.8 µM (inactive); in the assay with NCI/ADR-RES, 35.6 µM (inactive); in the assay on SW-620, 46.8 µM (inactive). In addition, the GI50 was > 100 µM (inactive) with OVCAR-5; > 100 µM (inactive) with NCI-H23; 30.3 µM (inactive) in the assay on SR; 1.88 µM (inactive) in the assay on HOP-92; 64.1 µM (inactive) in the assay on ACHN; > 100 µM (inactive) with SNB-19. In addition, the GI50 was 33.7 µM (inactive) in the assay on MCF7; 44.9 µM (inactive) with SK-OV-3; 20.2 µM (inactive) in the assay with A549; 13.3 µM (inactive) with T47D; 21.2 µM (inactive) with OVCAR-3; > 100 µM (inactive) with SF-539.

In the case of `CCOC(=O)CCC(NC(=O)c1ccc(Nc2nc3ccccc3nc2C(=O)OCC)s1)C(=O)OCC` (stereo not drawn), the GI50 with SN12C is > 100 µM (inactive); in the assay with HL-60 it was 36.6 µM (inactive); in the assay on KM12 it was 85.1 µM (inactive); with NCI/ADR-RES it was 19.9 µM (inactive); with SW-620, > 100 µM (inactive); in the assay on OVCAR-5 it was > 100 µM (inactive). Also, the GI50 with SR was > 100 µM (inactive); in the assay with HOP-92 it was > 100 µM (inactive); with NCI-H460 it was > 100 µM (inactive); with SNB-19, 95.1 µM (inactive); in the assay with MCF7, > 100 µM (inactive); in the assay on SK-OV-3, > 100 µM (inactive). The GI50 in the assay with A549 is 88.1 µM (inactive); with T47D it was > 100 µM (inactive); with OVCAR-3 it was > 100 µM (inactive); in the assay on SF-539, 63.4 µM (inactive).

As for `Cc1cc(-c2nc3c(O)cccc3s2)ccc1N`, the GI50 was 27.3 µM (inactive) with CCRF-CEM; 27.2 µM (inactive) in the assay with SN12C; 19.3 µM (inactive) in the assay on HL-60; 23.3 µM (inactive) with KM12; 19.9 µM (inactive) with NCI/ADR-RES; 41.4 µM (inactive) with SW-620. Further, the GI50 with NCI-H23 is 26.9 µM (inactive); in the assay on SR it was 25.5 µM (inactive); with HOP-92 it was 18.8 µM (inactive); in the assay with ACHN, 17.2 µM (inactive); in the assay on NCI-H460, 30.5 µM (inactive); with SNB-19, 15.3 µM (inactive). Moreover, the GI50 in the assay with MCF7 was 13 µM (inactive); in the assay on SK-OV-3, 39.1 µM (inactive); with A549, 19.1 µM (inactive); in the assay with T47D it was 74.5 µM (inactive); in the assay with OVCAR-3, 26.5 µM (inactive); with SF-539, 47.9 µM (inactive).
